In patent publication US20170051149A1, “AZOARYLS AS REVERSIBLY MODULATABLE TUBULIN INHIBITORS” (ECOLE NORMALE SUPERIEURE DE LYON, priority 2014, published 2017):

Assays:
[1] = UV-Vis absorption spectra of trans and cis isomers (λstrong, εE, λiso); type: physicochemical; details: PBS pH = 7.4, 20% MeCN
Protocol: A(λmeas, λirrad) is used to indicate the measured UV-Vis absorption spectrum in the range 340 nm<λmeas<650 nm, as a function of the irradiating wavelength λirrad once PSS(λirrad) has been established. UV-Vis measurement of A(λmeas, λirrad) was performed. It was considered that the PSS had been established when the absorbance profile ceased to alter under continued irradiation. An isosbestic point (wavelength λiso) was found for each compound by examining where the absorption A(λmeas) was invariant with respect to changing λirrad. A(λmeas, dark) was also acquired with samples that had been kept in the dark for at least several hours, and it was assumed that no significant spectral contribution from the cis isomer was present in these spectra. […]
HPLC (high-performance liquid chromatography) was then used as described in Part A to measure ε*E(λ) and ε*Z(λ) (the separated absorption profiles of trans and cis isomers respectively, in arbitrary units which are not intercomparable in an absolute sense). It was approximated that these spectra would be identical in shape if measured under the UV-Vis conditions, so once ε*E(λ) and ε*Z(λ) were scaled appropriately relative to each other, these scaled spectra could be used to deconvolute A(λmeas, λirrad). This approximation was considered useful especially in the regions of greatest spectral interest, ie. regions of relatively strong absorption (since only rather well-absorbed wavelengths will allow significant photoisomerisation under finite photon flux). To place the arbitrary-unit absorption spectra on an absolute scale, the maximal absorption wavelength λstrong of the trans-isomer was first selected by examining A(λmeas, dark): typically, λstrong≈380 nm. with Expressing A(λstrong, dark) in units M^−1cm^−1, ε*E(λstrong) was then scaled so that εE(λstrong)=A(λstrong, dark), giving:
εE(λ)=ε*E(λ)×[A(λstrong,dark)/ε*E(λstrong)]
and the isosbestic point was used to scale the cis-isomer spectrum as per:
εZ(λ)=ε*Z(λ)×[εE(λiso)/ε*Z(λiso)]
However, using A(λstrong, dark) was preferred, since A(λiso) was typically so much smaller that the standard deviation in the scaled absorptivities which it generated was far greater.
Absorption spectra in cuvette (“UV-Vis”) were acquired on a Varian CaryScan 50 (1 cm, 100 μL or 1 mL volume) with Peltier cell temperature control unit maintained at 37° C., in PBS at pH˜7.4 containing a low percentage of cosolvent if needed (typically 2% MeCN or 5% DMSO). A ThorLabs Polychrome V monochromator with a fibre optic cable output directed into the cuvette was used to perform photoisomerisation studies by UV-Vis spectrophotometry although single LEDs of approximately 10-20 mW output, 15-20° cone angle, and 10-15 nm bandwidth FWHM, obtained commercially from Roithner Lasertechnik GmbH, were equally successful in providing repeatable monochromatic photoisomerisation. Separated spectra of trans and […] forms were acquired from the inline Diode Array Detector on the AGILENT 1260 SL coupled LC-MS system after HPLC separation. Fluorescence spectrophotometry (excitation and emission spectra) were acquired on a Varian CaryEclipse fluorescence spectrophotometer.
By the above procedure, the trans- and cis-isomers of each species were separated by HPLC as described in Part A, and ε*E(λ) and ε*Z(λ) were measured on the inline ultraviolet/visible Diode Array Detector; these were then scaled as outlined above. The parameters λstrong, εE(λstrong) and λiso are tabulated for selected compounds below (Table 1).

[2] = thermal reversion halflife of spontaneous cis->trans isomerisation; type: physicochemical; details: PBS pH = 7.4, 20% MeCN
Source text: Finally, trends in τ were ascertained by establishing the PSS at λstrong, then turning off the light source at time t0, and measuring A(λstrong, t) over time. Data were acquired for half an hour, or else the first three halflives (whichever was the shorter period), then fitted to the equation:
A(λstrong,t)=A(λstrong,dark)−[A(λstrong,dark)−A(λstrong,t0)]×e^−kt
This fit was used to return an in vitro halflife τ* for the cis->trans spontaneous thermal reversion isomerisation process, defined as τ=ln 2/k. It should be noted however, that azoaryl compounds' thermal reversion rates are known to depend strongly upon their microenvironment, such as pH and solvent/solvation effects^[7,38]. This was shown for compound (I.1), where a change of only 1.4 pH units gave a 25% change in τ*; note that different compounds are expected to respond very differently to changes in pH so no unifying trends are expected. Therefore the τ* acquired in vitro were considered appropriate only for qualitative intercomparison between samples (trend of τ* vs structure), rather than quantitative prediction of the τ values which might be experienced in cellulo or in vivo. Indeed, these in vitro τ* values appeared at least three times longer than what would have been expected based on in cellulo experiments where the pause time between activating pulses was varied.
Thermal reversion times were measured as described above. Those for selected compounds are presented below (Table 2).

HeLa cells = experiment: cytotoxicity by crystal violet staining; type: cell-based; details: 40 h
Protocol: Seven of the compounds according to the invention were selected for biological tests. Their cytotoxicity was assessed using crystal violet staining as adapted from standard procedure^[31]. Briefly, HeLa cells were seeded on 96-well plates, treated with the given concentrations of the selected compound, and exposed or not to the pulse protocol of illumination with light at 390 nm (pulses of 75 ms every 15 s). After 40 h cells were stained with crystal violet solution (0.5% crystal violet in 20% methanol) for 10 min. Unbound crystal violet was removed by rinsing with distilled water and cells were air-dried. Crystal violet was subsequently eluted from cells with 0.1 M sodium citrate in 50% ethanol. The absorbance of crystal violet is proportional to the cell number and was determined at 590 nm with a FLUOstar Omega microplate reader (BMG Labtech).
Each compound was tested at 6 doses: 100 nM, 500 nM, 1 μM, 2 μM, 5 μM and 10 μM. In order to ensure their solubility in the cell culture media, DMSO was used as a co-solvent, and to provide comparability between all samples the volume of DMSO was adjusted to obtain its final concentration as 1% in the cell culture media for all the compounds at all concentrations tested.
Results presented in Table 4 below are expressed as a fold growth relative to the control growth of the cells treated only with a co-solvent (1% DMSO), and are represented as a mean value from triplicates coming from a representative experiment.

[3] = photoisomerisation: photostationary state, calculated φ(λ) and E(λ), reversible cycling; type: physicochemical; details: irradiation at 390 nm
Protocol: In a simple analysis of the PSS(λ) and E(λ), it was approximated that ΦEZ and ΦZE (the quantum efficiencies of the photoisomerisations trans->cis and cis->trans, respectively) are equal and independent of wavelength, and also that the kinetics of spontaneous reversion could be ignored (eg. high-intensity light source). A function φ(λ) was then calculated as per: […]
If ΦEZ and ΦZE are equal and independent of wavelength, φ(λ) gives the true PSS(λ). The wavelength independence of ΦEZ and ΦZE may be an acceptable approximation in regions of relatively strong absorption within the visible spectrum. Their equality may also be an acceptable assumption: since if ΦEZ and ΦZE are unequal but only depend weakly on wavelength in regions of relatively strong absorption, then φ(λ) is a transform of the true PSS(λ); this transform preserves the features of PSS(λ) which were most desired for evaluation in this study as long as ΦEZ and ΦZE are not too different (eg less than a factor of ten difference). Indeed, the calculated φ(λ) were later confirmed by in cellulo experiments to give reliable indications of favourable wavelengths for bulk trans->cis and bulk cis->trans photoisomerisation, which is the benchmark for a suitable analysis of the PSS(λ). The advantages of calculating φ(λ) rather than exhaustively measuring the PSS(λ) experimentally are that (a) the throughput is much faster, (b) the true PSS(λ) may be difficult to achieve at weakly-absorbing wavelengths or with fast-relaxing compounds, (c) the true PSS(λ) may be difficult to measure accurately at wavelengths where one isomer strongly dominates the sample even if both are relatively strongly absorbing, and (d) the variation of PSS(λ) with changes in the local biological microenvironment (polarity, pH etc) may anyway be larger than the error incurred by the assumption φ(λ)═PSS(λ).
Also following the assumption that ΦEZ and ΦZE are equal and independent of wavelength, a photoisomerisation efficiency E(λ) was calculated as per:
E(λ)=[εE(λ)+εZ(λ)]/[εE(390)+εZ(390)]
Larger values of E(λ) therefore denote higher efficiency photoisomerisation (less photon flux is required to approach the PSS(λ)). E(λ) was parametrised to the absorption coefficients at 390 nm, since typically that wavelength gave satisfactorily strong absorption and efficient photoisomerisation. It should be noted that E(λ) are not intercomparable between different compounds. This reflects the realistic scenario that the ΦEZ (or the ΦZE) of two arbitrarily chosen compounds may differ by a significant amount, even if the approximation that ΦEZ and ΦZE are equal and independent of wavelength applies independently to each compound.
A(λstrong) was measured over time in the UV-Vis cuvette in non-degassed PBS left open to the atmosphere, […], at 37° C., while the monochromator was used to apply λirrad alternating between two values λ1 and λ2, chosen to induce net trans->cis and net cis->trans isomerisation respectively. Typical results are presented for compound I.1 (FIG. 3). The absorbance of I.1 (18 μM) was measured at λstrong=378 nm, while the irradiating wavelength was held alternately at λ1=388 nm (50 s; bulk trans->cis) then λ2=508 nm (180 s, bulk cis->trans). Higher absorbance corresponds to a greater amount of trans isomer: an absorbance of 0.27 here corresponds to an approximately 5:1 ratio of trans:cis isomer in the sample, and an absorbance of 0.12 here corresponds to an approximately 1:2 ratio of trans:cis isomer in the sample. […] Typically, compounds of the invention could be bulk-photoisomerised hundreds of times over a timescale of hours (50 representative cycles are shown in FIG. 3 for I.1), such that the majority species in a sample was photocontrollably alternated between the trans-isomer and the cis-isomer. […]

[4] = 100 nM, 390 nm (75 ms every 15 s)
[5] = 500 nM, 390 nm (75 ms every 15 s)
[6] = 1 μM, 390 nm (75 ms every 15 s)
[7] = 2 μM, 390 nm (75 ms every 15 s)
[8] = 5 μM, 390 nm (75 ms every 15 s)
[9] = 10 μM, 390 nm (75 ms every 15 s)

Structure (SMILES)	εE(λstrong) [1]	λiso [1]	λstrong [1]	τ, reversion time [2]	mean fold growth (HeLa cells; [4])	mean fold growth (HeLa cells; 100 nM, Dark)	mean fold growth (HeLa cells; [5])	mean fold growth (HeLa cells; 500 nM, Dark)	mean fold growth (HeLa cells; [6])	mean fold growth (HeLa cells; 1 μM, Dark)	mean fold growth (HeLa cells; [7])	mean fold growth (HeLa cells; 2 μM, Dark)	mean fold growth (HeLa cells; [8])	mean fold growth (HeLa cells; 5 μM, Dark)	mean fold growth (HeLa cells; [9])	mean fold growth (HeLa cells; 10 μM, Dark)	change in absorbance spectrum upon irradiation [3]
COc1ccc(N=Nc2cc(OC)c(OC)c(OC)c2)cc1F [I.3, 1-(3-fluoro-4-methoxyphenyl)-2-(3,4,5-trimethoxyphenyl)diazene]	13300 M⁻¹ cm⁻¹	445 nm	365 nm	61 min	0.93 fold	1.03 fold	0.88 fold	1.00 fold	0.82 fold	0.95 fold	0.62 fold	0.90 fold	0.39 fold	0.96 fold	0.47 fold	0.99 fold	
COc1ccc(N=Nc2cc(OC)c(OC)c(OC)c2)c(F)c1 [I.4, 1-(2-fluoro-4-methoxyphenyl)-2-(3,4,5-trimethoxyphenyl)diazene]	19804 M⁻¹ cm⁻¹	455 nm	365 nm	119 min	0.98 fold	0.93 fold	0.78 fold	0.93 fold	0.53 fold	0.89 fold	0.48 fold	0.94 fold	0.44 fold	0.94 fold	0.36 fold	0.78 fold	
COc1ccc(N=Nc2cc(OC)c(OC)c(OC)c2)cc1 [I.6, 1-(4-methoxyphenyl)-2-(3,4,5-trimethoxyphenyl)diazene, reference compound]	16300 M⁻¹ cm⁻¹	445 nm	365 nm	83 min	0.99 fold	1.00 fold	1.09 fold	1.07 fold	0.79 fold	0.96 fold	0.47 fold	0.96 fold	0.68 fold	0.93 fold	0.37 fold	0.88 fold	
COc1ccc(N=Nc2cc(OC)c(OC)c(OC)c2)c(O)c1 [I.8, 5-methoxy-2-((3,4,5-trimethoxyphenyl)diazenyl)phenol]	14900 M⁻¹ cm⁻¹		390 nm	TOO FAST													no measurable change in absorbance spectrum
COc1ccc(N=Nc2cc(OC)c(OC)c(OC)c2)c(N)c1 [I.16, 5-methoxy-2-((3,4,5-trimethoxyphenyl)diazenyl)aniline]	14430 M⁻¹ cm⁻¹		410 nm	TOO FAST													no measurable change in absorbance spectrum
COc1ccc(N=Nc2cc(OC)c(OC)c(OC)c2)c(O)c1C [I.17, 3-methoxy-2-methyl-6-((3,4,5-trimethoxyphenyl)diazenyl)phenol]	10872 M⁻¹ cm⁻¹		385 nm	TOO FAST													no measurable change in absorbance spectrum
